The values below come from ChEMBL document CHEMBL1139512, “Further studies on the interaction of the 5-hydroxytryptamine3 (5-HT3) receptor with arylpiperazine ligands. development of a new 5-HT3 receptor ligand showing potent acetylcholinesterase inhibitory properties” (J Med Chem, 2005).

Experiment [1] addresses T1, Serotonin 3 (5-HT3) receptor (Rattus norvegicus, UniProt P35563+Q9JJ16).
T1 sequence (P35563 whole entry): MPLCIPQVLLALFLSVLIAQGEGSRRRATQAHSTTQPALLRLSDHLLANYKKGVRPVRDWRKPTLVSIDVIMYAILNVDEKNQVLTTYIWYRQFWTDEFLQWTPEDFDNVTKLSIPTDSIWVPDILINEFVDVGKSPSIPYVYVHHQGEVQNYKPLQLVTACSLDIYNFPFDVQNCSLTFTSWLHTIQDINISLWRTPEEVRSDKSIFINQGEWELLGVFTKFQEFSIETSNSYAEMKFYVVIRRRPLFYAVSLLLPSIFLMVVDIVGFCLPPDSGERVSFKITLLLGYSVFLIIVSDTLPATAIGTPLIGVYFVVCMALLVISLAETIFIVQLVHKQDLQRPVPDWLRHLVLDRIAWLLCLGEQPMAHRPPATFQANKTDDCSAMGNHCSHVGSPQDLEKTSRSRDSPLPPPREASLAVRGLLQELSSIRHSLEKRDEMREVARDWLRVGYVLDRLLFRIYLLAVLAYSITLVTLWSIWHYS
T1 sequence (Q9JJ16 whole entry): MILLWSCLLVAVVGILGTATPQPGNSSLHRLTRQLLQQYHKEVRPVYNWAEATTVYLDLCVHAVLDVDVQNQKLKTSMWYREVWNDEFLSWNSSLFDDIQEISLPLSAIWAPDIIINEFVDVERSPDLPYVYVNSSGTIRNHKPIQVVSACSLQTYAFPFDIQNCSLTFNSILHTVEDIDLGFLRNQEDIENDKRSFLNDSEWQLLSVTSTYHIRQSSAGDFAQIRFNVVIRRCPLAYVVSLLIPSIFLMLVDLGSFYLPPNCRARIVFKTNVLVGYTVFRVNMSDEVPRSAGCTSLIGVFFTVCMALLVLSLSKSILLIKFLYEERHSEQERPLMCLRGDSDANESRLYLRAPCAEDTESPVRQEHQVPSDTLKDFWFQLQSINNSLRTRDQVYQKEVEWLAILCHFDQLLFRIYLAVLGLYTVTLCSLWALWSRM

The target in experiment [2] is T2, Acetylcholinesterase (Homo sapiens, UniProt P22303).
T2 sequence (P22303 whole entry): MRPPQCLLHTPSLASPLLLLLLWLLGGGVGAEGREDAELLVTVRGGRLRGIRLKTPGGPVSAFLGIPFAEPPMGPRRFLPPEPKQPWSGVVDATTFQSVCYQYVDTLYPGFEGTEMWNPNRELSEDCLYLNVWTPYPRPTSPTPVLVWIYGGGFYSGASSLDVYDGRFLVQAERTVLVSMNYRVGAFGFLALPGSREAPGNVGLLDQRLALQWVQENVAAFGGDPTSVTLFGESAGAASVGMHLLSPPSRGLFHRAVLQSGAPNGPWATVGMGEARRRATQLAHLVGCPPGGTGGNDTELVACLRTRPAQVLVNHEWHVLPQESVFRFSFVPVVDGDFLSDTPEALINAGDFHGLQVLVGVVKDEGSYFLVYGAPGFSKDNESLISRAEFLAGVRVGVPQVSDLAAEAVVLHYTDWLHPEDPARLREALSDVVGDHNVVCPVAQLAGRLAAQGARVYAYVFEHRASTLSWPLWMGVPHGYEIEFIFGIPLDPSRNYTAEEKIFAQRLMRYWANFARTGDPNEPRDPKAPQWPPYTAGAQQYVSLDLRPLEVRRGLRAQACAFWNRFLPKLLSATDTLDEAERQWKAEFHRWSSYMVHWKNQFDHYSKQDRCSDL
Description: (§1) Inhibitory concentration against human acetylcholinesterase
Experiment [3] has as its target T3, Cholinesterase (Homo sapiens, UniProt P06276).
Experiment [4] deals with T3, Cholinesterase. As to the kind of experiment: Inhibitory concentration against butyrylcholinesterase.
Experiment [5] concerns the target T2, Acetylcholinesterase. The source holds these as a separate data set.
Description: as §1

T3 sequence (P06276 whole entry): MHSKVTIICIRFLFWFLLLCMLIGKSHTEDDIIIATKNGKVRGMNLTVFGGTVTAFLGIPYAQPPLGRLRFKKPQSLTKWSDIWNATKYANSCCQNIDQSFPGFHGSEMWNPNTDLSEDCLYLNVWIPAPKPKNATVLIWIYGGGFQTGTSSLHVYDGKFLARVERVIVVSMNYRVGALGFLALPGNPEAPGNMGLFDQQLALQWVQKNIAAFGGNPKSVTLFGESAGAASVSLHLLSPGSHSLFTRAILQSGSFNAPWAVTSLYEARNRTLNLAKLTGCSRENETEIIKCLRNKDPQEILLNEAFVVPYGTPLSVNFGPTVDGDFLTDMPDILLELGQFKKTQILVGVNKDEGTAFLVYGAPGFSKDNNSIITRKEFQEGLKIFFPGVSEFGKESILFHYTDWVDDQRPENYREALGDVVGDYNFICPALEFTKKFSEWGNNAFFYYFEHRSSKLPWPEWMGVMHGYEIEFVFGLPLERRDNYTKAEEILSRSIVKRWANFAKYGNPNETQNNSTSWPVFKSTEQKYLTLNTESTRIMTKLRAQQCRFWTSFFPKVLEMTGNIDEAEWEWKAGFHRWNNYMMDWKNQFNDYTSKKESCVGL

The Ki is a measure of affinity in units of concentration, obtained from inhibition or displacement. Lower therefore signals higher affinity. In the case of `CCCN(CCC)C(=O)c1c(C)c(N2CCN(C)CC2)nc2ccccc12`, the inhibition constant Ki in experiment [1] stood at 0.11 nM.

Consider `CN1CCN(c2cc(C(=O)N(C)Cc3ccccc3)c3ccccc3n2)CC1`, for which the Ki in experiment [1] was determined as 0.41 nM.

In general, IC50 refers to the concentration needed to halve the response being measured. Regarding `Cc1c(N2CCN(C)CC2)nc2ccccc2c1C(=O)N(C)Cc1ccccc1`, the IC50 in experiment [2] and in experiment [3] was over 10000 nM in each case. The Ki in experiment [1] amounted to 0.55 nM.

In experiment [1], `Cc1c(N2CCN(C)CC2)nc2ccccc2c1C(=O)N(C)c1ccc(Cl)cc1` returned a Ki of 13 nM.

`CN1CCN(c2nc3ccccc3c3c2CN(C)C3=O)CC1` had an inhibition constant Ki in experiment [1] of 2.1 nM.

Compound `CCN1Cc2c(N3CCN(C)CC3)nc3ccccc3c2C1=O` registered an inhibition constant (Ki) in experiment [1] of 3 nM.

In experiment [1], `CCCCCCN(CCCCCC)C(=O)c1c(C)c(N2CCN(C)CC2)nc2ccccc12` displayed an inhibition constant (Ki) of 188 nM.

As for `C#CCN(C)C(=O)c1c(C)c(N2CCN(C)CC2)nc2ccccc12`, in experiment [1], the Ki was determined as 0.45 nM.

Consider `CCCCN(CCCC)C(=O)c1c(C)c(N2CCN(C)CC2)nc2ccccc12`, for which the inhibition constant Ki in experiment [1] is 0.78 nM.

`CN1CCN(c2nc3ccccc3c3c2CN(Cc2ccccc2)C3=O)CC1` yielded a Ki in experiment [1] of 6.2 nM.

Turning to `Cc1c(N2CCN(C)CC2)nc2ccccc2c1C(=O)N(C(C)C)C(C)C`, the affinity in experiment [1] corresponds to a Ki of 2.2 nM.

In experiment [1], `CCOC(=O)c1c(CC)c(N2CCN(C)CC2)nc2ccccc12` registered an inhibitory constant (Ki) of 0.21 nM.

In experiment [1], `Cc1c(N2CCN(C)CC2)nc2ccccc2c1C(=O)c1ccccc1` gave a Ki of 0.84 nM.

Turning to `CCCN(CCC)C(=O)c1cc(N2CCN(C)CC2)nc2ccccc12`, the affinity in experiment [1] corresponds to a Ki of 0.68 nM.

In turn, `CCOC(=O)c1cc(N2CCN(C)CC2)nc2ccccc12` displayed an inhibition constant (Ki) in experiment [1] of 0.85 nM.

`CCCc1c(N2CCN(C)CC2)nc2ccccc2c1C(=O)N(CC)CC` displayed a Ki in experiment [1] of 0.92 nM.

In the case of `Cc1c(N2CCN(C)CC2)nc2ccccc2c1C(=O)N1CCCC1`, the affinity in experiment [1] corresponds to a Ki of 1.6 nM.

Take `CCCN(CCC)C(=O)c1c(CC)c(N2CCN(C)CC2)nc2ccccc12`: in experiment [1], the affinity corresponds to a Ki of 1.1 nM.

Consider `CCCc1c(N2CCN(C)CC2)nc2ccccc2c1C(=O)N(CCC)CCC`, for which the affinity in experiment [1], expressed as Ki, was 1.2 nM.

For the compound `Cc1c(N2CCN(C)CC2)nc2ccccc2c1C(=O)NCCCCCCCNc1c2c(nc3ccccc13)CCCC2`, the figures for the half-inhibitory concentration (IC50) in experiment [4] and in experiment [5] were 40 nM and 4.1 nM, respectively. In experiment [1], this compound came in with a Ki of 5.6 nM.

For `Cc1c(Cl)nc2ccccc2c1C(=O)NCCCCCCCNc1c2c(nc3ccccc13)CCCC2`, the IC50 in experiment [4] amounted to 32 nM; in experiment [5], 3 nM.

Turning to `CN1CCN(c2nc3ccccc3c3c2COC3=O)CC1`, in experiment [1], the inhibition constant Ki came to 2.4 nM.

For `CCN(CC)C(=O)c1cc(N2CCN(C)CC2)nc2ccccc12`, in experiment [1], affinity was put at a Ki of 1.6 nM.

In experiment [1], `CCOC(=O)c1c(N2CCN(C)CC2)nc2ccccc2c1C` yielded a Ki of 0.17 nM.

The compound `CCCN1Cc2c(N3CCN(C)CC3)nc3ccccc3c2C1=O` came in with an inhibition constant Ki in experiment [1] of 3.6 nM.

Compound `CCc1c(N2CCN(C)CC2)nc2ccccc2c1C(=O)N(CC)CC` displayed an inhibitory constant (Ki) in experiment [1] of 0.51 nM.

As to `CCN(CC)C(=O)c1c(C)c(N2CCN(C)CC2)nc2ccccc12`, in experiment [1], the Ki stood at 0.37 nM.

`CN1CCN(c2nc3ccccc3c(CO)c2CO)CC1` returned a Ki in experiment [1] of 2.7 nM.

`CCC(C)N1Cc2c(N3CCN(C)CC3)nc3ccccc3c2C1=O` (stereo not drawn): affinity in experiment [1] was put at a Ki of 4.2 nM.

Compound `CCCc1c(N2CCN(C)CC2)nc2ccccc2c1C(=O)N(C)Cc1ccccc1` returned a Ki in experiment [1] of 14 nM.

With `CCOC(=O)c1c(C)c(N2CCNCC2)nc2ccccc12`, the Ki in experiment [1] came out at 0.56 nM.

In the case of `CCc1c(N2CCN(C)CC2)nc2ccccc2c1C(=O)N(C)Cc1ccccc1`, in experiment [1], the Ki worked out at 10 nM.

Consider `CCOC(=O)c1c(C)c(N2CCN(C)CC2)nc2ccccc12`, for which the half-maximal inhibitory concentration (IC50) in experiment [2] and in experiment [3] was over 10000 nM throughout. Also, the inhibition constant Ki in experiment [1] stood at 0.43 nM.

`CCCCCN(CCCCC)C(=O)c1c(C)c(N2CCN(C)CC2)nc2ccccc12` came in with an inhibition constant (Ki) in experiment [1] of 19 nM.

On to `CCCc1c(N2CCN(C)CC2)nc2ccccc2c1C(=O)OCC`, for which, in experiment [1], the Ki amounted to 0.08 nM.

In turn, `CN1CCN(c2nc3ccccc3c3c2CCC3)CC1` showed a Ki in experiment [1] of 0.24 nM.
